Reference: publication PMC6402034 (Biochemical Journal, 2019)

Legend:
[1] = target: T1, ALA2 (aminophospholipid ATPase 2) (Arabidopsis thaliana, UniProt P98205); assay: lipid-stimulated ATPase activity of purified complex; format: biochemical
T1 sequence (P98205 1-1107): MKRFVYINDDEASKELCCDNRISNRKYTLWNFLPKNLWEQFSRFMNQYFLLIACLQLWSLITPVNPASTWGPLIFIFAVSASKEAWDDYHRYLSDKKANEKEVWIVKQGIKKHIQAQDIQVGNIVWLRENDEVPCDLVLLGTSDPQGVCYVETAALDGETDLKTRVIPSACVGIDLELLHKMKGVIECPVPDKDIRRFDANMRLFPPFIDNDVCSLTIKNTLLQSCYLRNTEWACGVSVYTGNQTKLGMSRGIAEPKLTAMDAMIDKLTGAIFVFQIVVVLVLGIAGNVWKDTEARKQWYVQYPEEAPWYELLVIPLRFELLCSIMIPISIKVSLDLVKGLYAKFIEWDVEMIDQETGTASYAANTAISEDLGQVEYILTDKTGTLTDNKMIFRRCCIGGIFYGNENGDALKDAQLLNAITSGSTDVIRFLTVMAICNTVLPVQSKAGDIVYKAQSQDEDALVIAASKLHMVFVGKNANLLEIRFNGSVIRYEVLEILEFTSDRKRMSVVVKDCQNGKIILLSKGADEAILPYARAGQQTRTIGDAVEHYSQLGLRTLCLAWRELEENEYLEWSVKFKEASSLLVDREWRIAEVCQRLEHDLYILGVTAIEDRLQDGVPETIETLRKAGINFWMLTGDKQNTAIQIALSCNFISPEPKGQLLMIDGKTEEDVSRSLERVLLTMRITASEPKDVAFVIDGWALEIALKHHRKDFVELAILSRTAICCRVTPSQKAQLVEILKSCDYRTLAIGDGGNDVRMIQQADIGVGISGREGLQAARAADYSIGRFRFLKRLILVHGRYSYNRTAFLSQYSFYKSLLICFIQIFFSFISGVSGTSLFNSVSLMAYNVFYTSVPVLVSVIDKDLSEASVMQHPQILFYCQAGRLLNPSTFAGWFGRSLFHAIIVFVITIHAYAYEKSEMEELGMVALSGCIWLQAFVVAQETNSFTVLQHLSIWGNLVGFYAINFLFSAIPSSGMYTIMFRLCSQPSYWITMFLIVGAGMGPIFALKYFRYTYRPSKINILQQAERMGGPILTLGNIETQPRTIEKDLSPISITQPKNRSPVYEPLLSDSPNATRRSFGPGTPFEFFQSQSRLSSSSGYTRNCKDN
T1 sequence (Q8L8W0 2-350 partner): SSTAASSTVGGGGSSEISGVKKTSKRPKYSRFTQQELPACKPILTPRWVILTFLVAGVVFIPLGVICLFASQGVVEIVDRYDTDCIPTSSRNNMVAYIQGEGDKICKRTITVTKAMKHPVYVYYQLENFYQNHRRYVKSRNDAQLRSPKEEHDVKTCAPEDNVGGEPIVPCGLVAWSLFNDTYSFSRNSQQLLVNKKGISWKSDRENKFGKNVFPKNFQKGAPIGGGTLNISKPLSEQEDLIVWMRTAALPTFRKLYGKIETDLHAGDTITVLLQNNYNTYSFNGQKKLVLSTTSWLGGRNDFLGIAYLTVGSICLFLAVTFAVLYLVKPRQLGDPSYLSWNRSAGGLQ

[2] = target: T1, ALA2 (aminophospholipid ATPase 2); assay: as above; format: biochemical; remark: listed apart in the source
[3] = target: T1, ALA2 (aminophospholipid ATPase 2)

CCCCCCCCCCCCCCCC(=O)OC[C@@H](O)COP(=O)(O)OC[C@H](N)C(=O)O [Lyso-PS, 1-hexadecanoyl-sn-glycero-3-phospho-L-serine]
EC50 [1]: 34 ± 7 µM

CCCCCCCC/C=C\CCCCCCCC(=O)O[C@H](COC(=O)CCCCCCCCCCCCCCC)COP(=O)(O)OC[C@@H](N)C(=O)O [P-D-S, 1-palmitoyl-2-oleoyl-sn-glycero-3-phospho-D-serine]
lipid-stimulated ATPase activity of purified complex [2]: The stereoisomer phosphatidyl-D-serine (P-D-S) was less than half as effective at stimulating ATPase activity compared with PS

[O]=[V]([OH])([OH])[OH] [orthovanadate]
IC50 [3]: ~22 µM
